Assay results published in US20240139138A1, “COMPOSITION OF AND METHOD FOR TREATING INJURY AND/OR SKIN CONDITIONS” (Omeza Holdings, Inc., priority 2022, published 2024).

Key:
[1] = test system: Methicillin Resistant Staphylococcus aureus MRSA USA300; test: In-vitro agar well diffusion, zone of bacterial growth inhibition; format: cell-based
Method: All challenge inoculum suspensions were prepared by swabbing a 3-cm diameter area of the growth from a culture plate into 4.5 ml of sterile phosphate buffer solution (PBS). […] The concentration was confirmed using historical optical density measurements. […] Concentrations of 10^4 CFU/ml for each bacteria was tested in this study.
Three (3) plates of Tryptic soy agar with 5% sheep blood (TSAII) per treatment for each bacteria was challenged with 100 μl of each inoculum 10^4 CFU/ml (MRSA USA300 or PA27312).
Inoculums were spread around each plate using 3 mm sterile glass beads.
Three (10 mm) punch biopsies were made on all inoculated TSAII blood culture media plates and those biopsies were removed with a sterile spatula to create wells on each plate.
Approximately 150-200 μl of each treatment was placed in the well of the inoculated TSA II plates. […] Negative Control Petrolatum or Sterile PBS.
Treatments were allowed to diffuse into agar for approximately 2-3 hours at room temperature prior to incubating plates for 24 hours at 37° C.
After the incubation period, the zones of bacteria growth inhibition (if any) were measured using ImageJ 1.4lo software.
IBM SSPS Statistics Version 26 with ANOVA statistical analysis was used to determine any differences between treatments.

[2] = Solubility in anhydrous lipophilic oil composition
[3] = average of 9 wells, 10^4 CFU/ml
[4] = average of 9 wells, 10^4 CFU/ml, ImageJ area

| Structure (SMILES) | zone of inhibition, comparison in words ([1]; MRSA USA300) | Average Inhition in cm2 [1, 3] [cm2] | Diameter cm (of average inhibition zone) [1, 3] [cm] | Average Inhibition Zone vs Each disk [1, 4] | Average Inhibition Zone vs disk average [1, 4] | areas of inhibition zones ([1]; mean ± spread, 10^4 CFU/ml MRSA USA300) [cm^2] | inherent solubility in an oil [2] |
| --- | --- | --- | --- | --- | --- | --- | --- |
| C/C(=C\C(=O)OCCCCCCCCC(=O)O)C[C@@H]1OC[C@H](C[C@@H]2O[C@H]2[C@@H](C)[C@H](C)O)[C@@H](O)[C@H]1O [Mupirocin] | largest zone of inhibition | 42.81 | 7.3849 | 244618.78 | 244618.78 | 42.81±0.29 | – |
| CCCCCCCCCCCC(=O)OCC(O)CO (stereo not shown) [monolaurin, glycerol monolaurate] | – | – | – | – | – | – | less than or equal to 0.6% |
